From publication PMC9623576, “Semisynthesis and Evaluation of Anti-Inflammatory Activity of the Cassane-Type Diterpenoid Taepeenin F and of Some Synthetic Intermediates” (Journal of Natural Products, 2022)
Read-outs that look alike come from different tables or passages of the source.

Legend:
[1] = test system: HT29 human colon adenocarcinoma cells; assay: MTT cancer cell proliferation assay, HT29; type: cell-based
Description: (§1) The five newly synthesized diterpenoids were evaluated for their cytotoxic effects against three selected tumor cell lines, B16-F10 murine melanoma cells, HT29 human colon adenocarcinoma cells, and HepG2 human hepatocarcinoma cells at increasing concentrations (0–100 μg/mL). After 72 h of treatment, cell viability was determined by an MTT assay, where the tetrazolium dye was transformed into formazan in the mitochondria of viable cells, its absorbance measured at 570 nm and expressed as a percentage with respect to untreated control cells (S3 Figure.). The concentrations required for 20, 50, and for 80% growth inhibition (IC20, IC50, and IC80) were also determined for each compound (Table 2).
(§2) A stock solution was frozen and stored at […]. Before the experiments, this solution was diluted in cell-culture medium to the adequate concentrations for each experiment. […] For nitrite assay, subcytotoxic concentrations (3/4IC50, 1/2IC50, and 1/4IC50), were used to ensure that the NO inhibitory potential was not due to a possible cytotoxic effect. The concentrations of 3/4IC50, 1/2IC50, and 1/4IC50 were used for the cell-cycle analysis. All experiments were measured and compared with control (untreated cells after 24, 48, or 72 h of treatment.)
(§3) Human colorectal adenocarcinoma cell line HT29 (ECACC no. 9172201; ATCC no. HTB-38), human hepatocarcinome cell line HepG2 (ECACC no. 85011430), mouse melanoma cells B16-F10 (ATCC no. CRL-6475), and murine monocyte/macrophage-like RAW 264.7 cell line (ATCC no, TIB-71) were cultured in DMEM (Dulbecco’s modified Eagle’s medium) supplemented with 2 mM glutamine, 10% heat-inactivated FCS (fetal calf serum), 10 000 units/mL of penicillin and 10 mg/mL of streptomycin, (for all cancer cell lines), 50 μg/mL of gentamicin (only for RAW 264.7 cell line), and incubated at 37 °C, in an atmosphere of 5% CO2 and 95% humidity. The culture media were changed every 48 h, and the confluent cultures were separated with a trypsin solution (0.25% EDTA). In all experiments, monolayer cells were grown to 80–90% confluence, in sterile cell culture flasks. All cell lines used were purchased from the cell bank of the University of Granada, Spain.
(§4) The cytotoxicity assay was performed by the MTT (3-(4,5-dimethylthiazol-2-yl)-2,5-diphenyltetrazolium bromide) method.[21] To quantify the cytotoxicity of compounds, the fresh and suspended cells were seeded in 96-well plates to a volume of 100 μL at 6.0 × 10^3 cells/mL for HT29 and RAW 264.7 cell lines, at 5.0 × 10^3 cells/mL for B16-F10 cells and 15.0 × 10^3 for Hep G2. Then, cells were incubated to adhere over 24 h at 37 °C with 5% CO2. All tested compounds were prepared in fresh growth medium. After 24 h, an additional 100 μL of medium with the corresponding concentrations of products (only medium in the control wells) was added to the corresponding wells, at various final concentrations (0–100 μg/mL). Finally, after 72 h of incubation at 37 °C with 5% CO2, the medium with the compounds were removed and 100 μL of MTT solution (0.5 mg/mL) in 50% of PBS 50% of medium was added to each well. After 1.5 h of incubation, formazan was resuspended in 100 μL of DMSO, and each concentration was tested in triplicate. Relative cell viability, with respect to untreated control cells, was measured by absorbance at 570 nm on an ELISA plate reader (Tecan Sunrise MR20-301, TECAN, Austria).
(§5) Cytotoxicity experimental data were fitted to a sigmoidal function (y = ymax/(x/a)^−b) by nonlinear regression. […] These analyses were performed using SigmaPlot 12.5 software. Similar analyses were performed to obtain the IC50 of NO production. All data shown here are representative of at least two independent experiments performed in triplicate. All quantitative data were summarized as the mean ± standard deviation (SD).

[2] = test system: RAW 264.7 monocyte/macrophage murine cells; assay: MTT growth inhibition on RAW 264.7 cells; type: cell-based; conditions: Mus musculus, RAW264.7, RAW 264.7, MTT; for IC20: 20% growth inhibition; for IC80: 80% growth inhibition
Description: as §2
In all experiments, monolayer cells were grown to 80–90% confluence, in sterile cell culture flasks. All cell lines used were purchased from the cell bank of the University of Granada, Spain.
The cytotoxicity assay was performed by the MTT (3-(4,5-dimethylthiazol-2-yl)-2,5-diphenyltetrazolium bromide) method.[21] […] All tested compounds were prepared in fresh growth medium. After 24 h, an additional 100 μL of medium with the corresponding concentrations of products (only medium in the control wells) was added to the corresponding wells, at various final concentrations (0–100 μg/mL). […] After 1.5 h of incubation, formazan was resuspended in 100 μL of DMSO, and each concentration was tested in triplicate.
Cytotoxicity experimental data were fitted to a sigmoidal function (y = ymax/(x/a)^−b) by nonlinear regression. […] Similar analyses were performed to obtain the IC50 of NO production. All data shown here are representative of at least two independent experiments performed in triplicate. All quantitative data were summarized as the mean ± standard deviation (SD).

[3] = test system: HepG2 human hepatocarcinoma cells; assay: MTT cancer cell proliferation assay, HepG2; type: cell-based; conditions: HepG2, 72 h
Description: as §1, §2, §3, §4, §5

[4] = test system: NO production in LPS-activated RAW 264.7 macrophage murine cells; assay: Inhibition of NO (nitrite) release, Griess reaction; type: cell-based
Description: The concentrations of nitrites were determined by the Griess reaction.
as §2
Nitrites production was analyzed through the Griess reaction. This nitrite concentration was used as an indicator of NO production.[35] Briefly, RAW 264.7 cells were plated at 6 × 10^3 cells/well in 24-well cell culture plates and supplemented with 10 μg/mL of lipopolysaccharide (LPS). […] The supernatants were collected at 48 and 72 h, to determine their nitrite concentrations and/or stored at −80 °C for further use.
The Griess reaction was performed taking 150 μL of supernatant test samples or sodium nitrite standard (0–120 μM) and mixed with 25 μL of Griess reagent A (0.1% N,N-(1-naphthyl) ethylenediaminedihydrochloride) and 25 μL of Griess reagent B (1% sulfanilamide in 5% of phosphoric acid), in a 96-well plate. After 15 min of incubation at room temperature, the absorbance was measured at 540 nm in an ELISA plate reader (Tecan Sunrise MR20–301, TECAN, Austria). The absorbance was referred to a nitrite standard curve to determine the concentration of nitrite in the supernatant of each experimental sample. The percentage of NO production was determined, assigning 100% at the increase between negative control (untreated cells) and positive control (cells only treated with 10 μg/mL of LPS).

[5] = test system: B16-F10 murine melanoma cells; assay: MTT cancer cell proliferation assay, B16-F10; type: cell-based; conditions: B16-F10, 72 h
Description: as §1, §2, §3, §4, §5

NO release = conditions: read-out: IC50 of NO inhibitory effect; cited from earlier work
MCF-7 cancer cell line = test system: MCF-7 cancer cell line; design: method as in PMID 23806110; conditions: MCF-7 cancer cell line ref 10; cited from earlier work
HepG-2 cancer cell line = test system: HepG-2 cancer cell line; design: method as in PMID 23806110; conditions: HepG-2 cancer cell line ref 10; cited from earlier work
[6] = Homo sapiens, HT-29, HT29, 72 h, MTT
[7] = Homo sapiens, HT-29, HT29, 72 h, MTT, read-out: IC20
[8] = Homo sapiens, MTT, read-out: IC50
[9] = Homo sapiens, MTT, read-out: IC20
[10] = Mus musculus, MTT, read-out: IC50
[11] = Mus musculus, MTT, read-out: IC20

Row | Molecule | IC20 [2] [µM] | IC80 [2] [µM] | inhibition of NO release ([4]; 48 h, 1/2IC50 concentration) [%] | inhibition of NO release ([4]; 48 h, 3/4IC50 concentration) [%] | inhibition of NO release ([4]; 72 h, 3/4IC50 concentration) [%] | IC80 [1, 6] [µM] | IC20 [1, 7] [µM] | IC50 [2] [µM] | IC50 ([3]; MTT, read-out: IC50) [µM] | IC50 [3, 8] [µM] | IC80 ([3]; Homo sapiens, MTT) [µM] | IC20 [3, 9] [µM] | IC50 ([5]; MTT, read-out: IC50) [µM] | IC50 [5, 10] [µM] | IC80 ([5]; Mus musculus, MTT) [µM] | IC20 [5, 11] [µM] | further results
1 | COC(=O)[C@]1(C)CCC[C@]2(C)c3cc4c(c(C)c3CC[C@@H]12)CC(=O)O4 [Compound 6, (4R,4aR,11bS)-Methyl 4,7,11b-trimethyl-9-oxo-1,2,3,4,4a,5,6,8,9,11b-decahydrophenanthro[3,2-b]furan-4-carboxylate] | 111 ± 24 | 254.7 ± 1.48 | 77.80 | 88.33 | 98 | – | – | – | – | – | – | – | – | – | – | – | IC50 ([1]; HT29, 72 h, MTT): > 100 µM; IC50 ([1]; HT29, 72 h, MTT, listed as Taepeenin F (6)): 391 ± 39.5 µM; IC20 ([1]; Homo sapiens, HT-29, 72 h): 124.2 ± 1.11 µM; IC50 ([3]; MTT): > 100 µM; IC50 ([3]; MTT, listed as Taepeenin F (6)): 237 ± 9.69 µM; IC20 ([3]; Homo sapiens): 112 ± 22 µM; IC50 ([5]; MTT): > 100 µM; IC50 ([5]; MTT, listed as Taepeenin F (6)): 257 ± 24 µM; IC20 ([5]; Mus musculus): 234 ± 4.12 µM
2 | COC(=O)[C@]1(C)CCC[C@]2(C)c3cc(O)c(C(C)C)c(C)c3CC[C@@H]12 [Compound 17, (1R,4aS,10aR)-Methyl 6-hydroxy-7-isopropyl-1,4a,8-trimethyl-1,2,3,4,4a,9,10,10a-octahydrophenanthrene-1-carboxylate] | 27.8 ± 8.38 | 247 ± 6.3 | 86.5 | 89.70 | 99 | 311 ± 8.32 | 122 ± 24.2 | 129 ± 7.06 | 137 ± 13.9 | > 85.6 | 274 ± 41.2 | 32.6 ± 3.41 | 133 ± 8.17 | > 85.6 | 259.3 ± 1.35 | 33.3 ± 5.94 | –
3 | COC(=O)[C@]1(C)CCC[C@]2(C)c3cc(O)c(CO)c(C)c3CC[C@@H]12 [Compound 22, (1R,4aS,10aR)-Methyl 6-hydroxy-7-(hydroxymethyl)-1,4a,8-trimethyl-1,2,3,4,4a,9,10,10a-octahydrophenanthrene-1-carboxylate] | 92.1 ± 1.13 | 114.2 ± 0.17 | 70.94 | 86.96 | 96 | 114 ± 7.35 | 67.5 ± 4.61 | 101.8 ± 0.52 | 125 ± 2.36 | > 85.6 | 141 ± 6.51 | 110.1 ± 0.84 | 102 ± 4.36 | > 85.6 | 122 ± 4.22 | 85.5 ± 6.16 | IC50 ([1]; HT29, 72 h, MTT, read-out: IC50): 85.6 ± 4.99 µM; IC50 ([1]; Homo sapiens, HT-29, 72 h, HT29, 72 h, MTT, read-out: IC50): > 85.6 µM; melting point: 98 to 101 °C
4 | caesalmin A | – | – | – | – | – | – | – | – | – | – | – | – | – | – | – | – | IC50 (NO release): ~25.4 µM
5 | caesalpin A [Compound 8] | – | – | – | – | – | – | – | – | – | – | – | – | – | – | – | – | IC50 (MCF-7 cancer cell line): 2.1 µM; IC50 (HepG-2 cancer cell line): 4.7 µM
